Measured values from US11319298B2 (Merck Sharp & Dohme Corp., priority 2016, dated 2022).

What follows are molecules tested against T1, human M4 muscarinic acetylcholine receptor (Homo sapiens, UniProt P08173) (assay: human FLIPR-based M4 PAM assay, CHO-K1 cells stably transfected with human M4 receptor and chimeric G-protein Gαqi5). Conditions: inflection point (IP) of dose response curve; acetylcholine added at 20% of maximum response; CHO-K1 human M4/Gαqi5, FLIPR Tetra.
T1 construct: expressed in transfected cells; host or cells: CHO-K1
T1 sequence (P08173 1-479): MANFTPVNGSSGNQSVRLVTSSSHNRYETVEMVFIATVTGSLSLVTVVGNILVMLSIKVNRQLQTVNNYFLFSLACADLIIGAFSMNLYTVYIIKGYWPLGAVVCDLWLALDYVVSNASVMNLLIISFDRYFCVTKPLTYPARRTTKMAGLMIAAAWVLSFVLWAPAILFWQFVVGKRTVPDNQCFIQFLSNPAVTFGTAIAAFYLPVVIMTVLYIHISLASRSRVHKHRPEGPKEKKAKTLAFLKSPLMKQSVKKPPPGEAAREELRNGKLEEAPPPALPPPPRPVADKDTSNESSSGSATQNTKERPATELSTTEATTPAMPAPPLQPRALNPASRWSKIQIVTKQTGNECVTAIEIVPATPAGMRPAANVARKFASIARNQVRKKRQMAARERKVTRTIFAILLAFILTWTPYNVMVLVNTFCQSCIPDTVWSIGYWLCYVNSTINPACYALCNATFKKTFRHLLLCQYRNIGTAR
Type: cell-based
Summary of the method: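 The FLIPR read recorded 4 min after compound was added across a concentration range, then 3.5 min after acetylcholine giving 20% of its maximal response, with an occasional extra EC70 addition. Cells were dye-loaded for about 1 h at 37 °C. Potency is the curve inflection point from a four-parameter logistic fit.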

Molecule	EC50 [nM]
CONC(=O)c1cc(C)c(N2CCC(Oc3ccc(OC)nc3)CC2)nn1 [Example 128, N-methoxy-6-{4-[(6-methoxypyridin-3-yl)oxy]piperidin-1-yl}-5-methylpyridazine-3-carboxamide]	121
COc1ccc(OC2CCN(c3nc(SC)nc(Cl)c3C)CC2)cn1 [Example 82, 4-chloro-6-(4-((6-methoxypyridin-3-yl)oxy)piperidin-1-yl)-5-methyl-2-(methylthio)pyrimidine]	385
COc1ccc(OC2CCN(c3nnc(C)c(C)c3C#N)CC2)cn1 [Example 86, 3-(4-((6-methoxypyridin-3-yl)oxy)piperidin-1-yl)-5,6-dimethylpyridazine-4-carbonitrile]	1170
Cc1c(Cl)nc(CO)nc1N1CCC(Oc2ccc3ccc(=O)oc3c2)CC1 [Example 2, 7-((1-(6-chloro-2-(hydroxymethyl)-5-methylpyrimidin-4-yl)piperidin-4-yl)oxy)-2H-chromen-2-one]	427
Cc1c(Cl)nc(CO)nc1N1CCC(Oc2ccc3[nH]ccc3c2)CC1 [Example 97, (4-(4-((1H-indol-5-yl)oxy)piperidin-1-yl)-6-chloro-5-methylpyrimidin-2-yl)methanol]	68
Cc1c(Cl)ncnc1N1CCC(Oc2cccc(C#N)c2)CC1 [Example 50, 3-((1-(6-chloro-5-methypyrimidin-4-yl)piperidin-4-yl)oxy)benzonitrile]	49
COc1ccc(OC2CCN(c3nc(C(=O)NC4CNC4)nc(Cl)c3C)CC2)cn1 [Example 215, N-(azetidin-3-yl)-4-chloro-6-(4-((6-methoxypyridin-3-yl)oxy)piperidin-1-yl)-5-methylpyrimidine-2-carboxamide]	835
COc1ccc(OC2CCN(c3nnc(C(=O)N4CCc5snc(-c6cccnc6)c5C4)cc3C)CC2)cn1 [Example 203, 5-[(6-{4-[(6-methoxypyridin-3-yl)oxy]piperidin-1-yl}-5-methylpyridazin-3-yl)carbonyl]-3-pyridin-3-yl-4,5,6,7-tetrahydroisothiazolo[4,5-c]pyridine]	504
COc1ccc(OC2CCN(c3nnc(C(=O)NCc4cccc(C#N)c4)cc3C)CC2)cn1 [Example 153, N-(3-cyanobenzyl)-6-{4-[(6-methoxypyridin-3-yl)oxy]piperidin-1-yl}-5-methylpyridazine-3-carboxamide]	261
Cc1cc(C(=O)N[C@@H]2CCc3cccnc3C2)nnc1N1CCC(Oc2cccc(C#N)c2)CC1 [Example 164B, (R)-6-[4-(3-cyanophenoxy)piperidin-1-yl]-5-methyl-N-(5,6,7,8-tetrahydroquinolin-7-yl)pyridazine-3-carboxamide]	338
Cc1cc(C(=O)NC2CCc3ncccc3C2)nnc1N1CCC(OCC2CC2)CC1 (stereo not shown) [Example 133, 6-[4-(cyclopropylmethoxy)piperidin-1-yl]-5-methyl-N-(5,6,7,8-tetrahydroquinolin-6-yl)pyridazine-3-carboxamide]	142
COc1ccc(OC2CCN(c3nc(Cl)nc(Cl)c3C)CC2)cc1 [Example 77, 2,4-dichloro-6-(4-(4-methoxyphenoxy)piperidin-1-yl)-5-methylpyrimidine]	177
COc1ccc(OC2CCN(c3ncncc3Br)CC2)cn1 [Example 95D, 5-bromo-4-(4-((6-methoxypyridin-3-yl)oxy)piperidin-1-yl)pyrimidine]	928
COc1ccc(OC2CCN(c3nc(C4CC4)nc(Cl)c3C)CC2)cc1 [Example 95C, 4-chloro-2-cyclopropyl-6-(4-(4-methoxyphenoxy)piperidin-1-yl)-5-methylpyrimidine]	846
COc1ccc(OC2CCN(c3nc(C)ncc3C)CC2)cn1 [Example 79, 4-(4-((6-methoxypyridin-3-yl)oxy)piperidin-1-yl)-2,5-dimethylpyrimidine]	235
COc1ccc(OC2CCN(c3nnc(C(=O)OCc4ccncc4)cc3C)CC2)cn1 [Example 106A, Pyridin-4-ylmethyl 6-(4-((6-methoxypyridin-3-yl)oxy)piperidin-1-yl)-5-methylpyridazine-3-carboxylate]	85
6-((1-(6-chloro-2-(hydroxymethyl)-5-methylpyrimidin-4-yl)piperidin-4-yl)oxy)-2-cyclopropylisoindolin-1-one [Example 32]	185
Cc1nc2ccc(OC3CCN(c4nnc(C(=O)NCc5ccncc5)cc4C)CC3)cc2o1 [Example 143, 5-methyl-6-{4-[(2-methyl-1,3-benzoxazol-6-yl)oxy]piperidin-1-yl}-N-(pyridin-4-ylmethyl)pyridazine-3-carboxamide]	193
COc1ccc(OC2CCN(c3nnc(C(=O)NCc4ccncc4)cc3C)CC2)cc1 [Example 101, 6-(4-(4-Methoxyphenoxy)piperidin-1-yl)-5-methyl-N-(pyridin-4-ylmethyl)pyridazine-3-carboxamide]	129

Results, then the molecule that gave them:

EC50 [nM]	Molecule
484	C=Cc1ncnc(N2CCC(Oc3cccc(C#N)c3)CC2)c1C [Example 245, 3-((1-(5-methyl-6-vinylpyrimidin-4-yl)piperidin-4-yl)oxy)benzonitrile]
1040	COc1ccc(OC2CCN(c3ncnc(N4C[C@H](F)[C@@H](F)C4)c3C)CC2)cn1 [Example 230, 4-((3S,4S)-3,4-difluoropyrrolidin-1-yl)-6-(4-((6-methoxypyridin-3-yl)oxy)piperidin-1-yl)-5-methylpyrimidine]
134	CNc1ncnc(N2CCC(Oc3ccc(OC)nc3)CC2)c1C [Example 234, 6-(4-((6-methoxypyridin-3-yl)oxy)piperidin-1-yl)-N,5-dimethylpyrimidin-4-amine]
141	COc1ccc(O[C@@H]2CCN(c3nc(C(N)=O)nc(Cl)c3C)C[C@@H]2F)cn1 [Example 222, 4-chloro-6-((3S,4R)-3-fluoro-4-((6-methoxypyridin-3-yl)oxy)piperidin-1-yl)-5-methylpyrimidine-2-carboxamide]
156	COc1ccc(OC2CCN(c3nc(NCCO)nc(Cl)c3C)CC2)cn1 [Example 228, 2-((4-Chloro-6-(4-((6-methoxypyridin-3-yl)oxy)piperidin-1-yl)-5-methylpyrimidin-2-yl)amino)ethan-1-ol]
3200	COc1ccc(OC2CCN(c3ncnc(NCCC(F)(F)F)c3C)CC2)cn1 [Example 239, 6-(4-((6-methoxypyridin-3-yl)oxy)piperidin-1-yl)-5-methyl-N-(3,3,3-trifluoropropyl)pyrimidin-4-amine]
321	COc1ccc(OC2CCN(c3nc(C(=O)NCc4cnsc4)nc(Cl)c3C)CC2)cn1 [Example 225, 4-chloro-N-(isothiazol-4-ylmethyl)-6-(4-((6-methoxypyridin-3-yl)oxy)piperidin-1-yl)-5-methylpyrimidine-2-carboxamide]
1130	Cc1c(-c2ccc3c(c2)OCCO3)ncnc1N1CCC(Oc2cccc(C#N)c2)CC1 [Example 250, 3-((1-(6-(2,3-dihydrobenzo[b][1,4]dioxin-6-yl)-5-methylpyrimidin-4-yl)piperidin-4-yl)oxy)benzonitrile]
1550	CCCc1ncnc(N2CCC(Oc3ccc(OC)nc3)CC2)c1C [Example 248, 4-(4-((6-methoxypyridin-3-yl)oxy)piperidin-1-yl)-5-methyl-6-propylpyrimidine]
